Measured values reported in ChEMBL document CHEMBL1122478, “Tricyclic triarylethylene antiestrogens: dibenz[b,f]oxepins, dibenzo[b,f]thiepins, dibenzo[a,e]cyclooctenes, and dibenzo[b,f]thiocins” (1983).

How the values were obtained:
Format in all cases: functional
[1] = species on record: Rattus norvegicus; assay: Minimum fully effective dose that prevented implantation of eggs in three out of three rats (MFED) (antifertility)
[2] = tested on: Mus musculus; assay: Sedative activity measured after ip administration to female mice and checked for their horizontal movement at a dose of 10 mg/Kg
[3] = tested on: Mus musculus; assay: Sedative activity measured after ip administration to female mice and checked for their horizontal movement at a dose of 5 mg/Kg
[4] = species on record: Rattus norvegicus; assay: Dose prevented implantation in two out of 3 rats
[5] = tested on: Mus musculus; assay: Sedative activity measured after ip administration to female mice and checked for their horizontal movement at a dose of 1 mg/Kg
[6] = species on record: Rattus norvegicus; assay: Dose prevented implantation in two out of 3 rats;
[7] = species on record: Rattus norvegicus; assay: Dose prevented implantation in two out of three rats

CCC1=C(c2ccc(O)cc2)c2ccc(OCC(O)CO)cc2Sc2ccccc21 (centres undefined)
MFED [1]: 5 mg/kg

CCC1=C(c2ccc(O)cc2)c2ccc(OCCN(C)C)cc2Sc2ccccc21
MFED [1]: 0.5 mg/kg
Reduction in movement [2]: 45%

C=CCOc1ccc2c(c1)SCc1ccccc1/C(CC)=C\2c1ccccc1
MFED [1]: 5 mg/kg

CC/C1=C(\c2ccc(O)cc2)c2ccc(OCC(O)CO)cc2SCc2ccccc21 (centres undefined)
MFED [1]: 5 mg/kg
Reduction in movement [3]: 62%

CCC1=C(c2ccc(O)cc2)c2ccc(OCC(O)CO)cc2Oc2ccccc21 (centres undefined)
Dose [4]: 10 mg/kg
MFED [1]: 25 mg/kg
Reduction in movement [3]: 61%

C=CCOc1ccc2c(c1)Oc1ccccc1C(CC)=C2c1ccc(O)cc1
MFED [1]: >25 mg/kg

CCC1=C(c2ccccc2)c2ccc(O)cc2Sc2ccccc21
MFED [1]: >5 mg/kg
Reduction in movement [3]: 60%
Reduction in movement [2]: 72%
Reduction in movement [5]: 34%

C=CCOc1ccc2c(c1)Sc1ccccc1C(CC)=C2c1ccc(O)cc1
MFED [1]: 5 mg/kg

C=CCOc1ccc2c(c1)SCc1ccccc1/C(CC)=C\2c1ccc(O)cc1
Dose [4]: ~10 mg/kg
MFED [1]: 25 mg/kg

CC/C(=C(\c1ccccc1)c1ccc(OCCN(C)C)cc1)c1ccccc1 [TAMOXIFEN]
MFED [1]: 0.1 mg/kg

C=CCOc1ccc2c(c1)Sc1ccccc1C(CC)=C2c1ccccc1
MFED [1]: >25 mg/kg
Reduction in movement [3]: 76%
Reduction in movement [5]: 48%

CC/C1=C(\c2ccccc2)c2ccc(OCC(O)CO)cc2SCc2ccccc21 (centres undefined)
Dose [6]: 5 mg/kg

CCC1=C(c2ccc(O)cc2)c2ccc(OCCN(C)C)cc2Oc2ccccc21
MFED [1]: 10 mg/kg
Reduction in movement [3]: 70%

CC/C1=C(\c2ccc(O)cc2)c2ccc(OCCN(C)C)cc2SCc2ccccc21
MFED [1]: 0.5 mg/kg
Reduction in movement [3]: 61%

CCC1=C(c2ccccc2)c2ccc(OCCN(C)C)cc2Oc2ccccc21
Dose [7]: ~10 mg/kg
MFED [1]: 25 mg/kg

CCC1=C(c2ccccc2)c2ccc(OCC(O)CO)cc2Sc2ccccc21 (centres undefined)
Dose [4]: ~25 mg/kg
Reduction in movement [3]: 84%
Reduction in movement [5]: 33%

CCC1=C(c2ccccc2)c2ccc(OCCN(C)C)cc2Sc2ccccc21
Dose [4]: ~1 mg/kg
MFED [1]: 5 mg/kg
Reduction in movement [2]: 46%
Reduction in movement [5]: 49%

CCC1=C(c2ccccc2)c2ccc(OCC(O)CO)cc2Oc2ccccc21 (centres undefined)
MFED [1]: 10 mg/kg

C=CCOc1ccc2c(c1)Oc1ccccc1C(CC)=C2c1ccccc1
MFED [1]: >25 mg/kg

CN(C)CCCN1c2ccccc2Sc2ccc(Cl)cc21 [CHLORPROMAZINE]
Reduction in movement [5]: 73%

CC/C1=C(\c2ccccc2)c2ccc(OCCN(C)C)cc2SCc2ccccc21
MFED [1]: 0.5 mg/kg
